The target of this assay is Kappa-type opioid receptor (Homo sapiens) (UniProt P41145). Briefly: KOR agonist analogs, arrestin-GFP redistribution, SAR follow-up, imaging, image-based, set 3 (AID 488833). As to conditions: U2OS KOR beta-arrestin-GFP translocation imaging.

Activity calls are given as the source filed them.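 Rule for the calls: active = EC50 below a set limit; inactive = the rest.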

Chain of Kappa-type opioid receptor (Homo sapiens) (P41145 whole entry, looked up): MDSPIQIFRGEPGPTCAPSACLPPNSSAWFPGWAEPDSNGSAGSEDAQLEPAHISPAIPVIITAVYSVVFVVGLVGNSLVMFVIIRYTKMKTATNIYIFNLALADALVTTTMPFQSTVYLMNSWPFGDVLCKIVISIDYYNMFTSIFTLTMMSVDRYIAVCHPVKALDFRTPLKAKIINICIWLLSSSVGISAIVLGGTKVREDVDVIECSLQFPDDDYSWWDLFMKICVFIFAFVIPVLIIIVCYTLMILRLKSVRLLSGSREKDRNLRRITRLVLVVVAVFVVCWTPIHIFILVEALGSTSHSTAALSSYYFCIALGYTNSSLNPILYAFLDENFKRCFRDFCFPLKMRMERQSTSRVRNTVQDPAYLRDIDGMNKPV

Regarding `Cc1ccccc1CSc1nnc(-c2ccccn2)n1Cc1cccs1`, the EC50 entry was “inactive”.
